SMILES strings stand for the structures.

Experiment [1] addresses T1, NK1 receptor (Cavia porcellus, UniProt P30547). The experiment can be described thus: Antagonism of iodinated tachykinin (125I-substance P) binding to NK1 receptor in guinea pig lungs. More on the design: tissue Keystone Biologicals, Cleveland, Ohio; host or cells: guinea pig lung membranes. The procedure:
ANTAGONISM OF IODINATED TACHYKININ BINDING TO NK1 AND NK2 RECEPTORS BY PUTATIVE ANTAGONISTS
The NK1 receptor affinity of proposed tachykinin antagonists was evaluated in guinea pig lungs (Keystone Biologicals, Cleveland, Ohio), affinity for the NK2 receptor evaluated in HSKR-1 cells (which are mouse 3T3 fibroblasts expressing the human jejunal NK2 receptor) and NK-3 receptor affinity was evaluated in freshly collected guinea pig cerebral cortex. Tissues or cells were homogenized with a Polytron in 15 volumes of 50 mM Tris-HCl buffer (pH 7.4, 4° C.) and centrifuged. The pellet was resuspended in Tris-HCl buffer and was centrifuged; the pellet was washed twice by resuspension. The final pellet was resuspended at a concentration of 40 mg/ml for tissues (guinea pig lung and cerebral cortex) and 20 mg/ml for cells in incubation buffer and remained at room temperature for at least 15 min prior to use. Receptor binding was initiated by addition of 250 ul membrane preparation in duplicate to 0.1 nM of the following radioligands: ^125 I-Bolton Hunter Lys-3 labeled substance P; ^125 iodohistidyl-1-neurokinin A; and ^125 I-Bolton Hunter labeled Lys-4 eledoisin in a final volume of 500 ul of buffer containing 50 mM Tris-HCl (pH 7.4 at room temperature), 0.1% bovine serum albumin, 2 mM MnCl2, 40 ug/ml bacitracin, 4 µg/ml leupeptin and chymostatin, 1 μM thiorphan and various doses of the putative tachykinin antagonists. Incubations were performed at room temperature for 90 min (NK1 receptor assays) or 2 hr (NK2 and NK3 receptor assays); binding was terminated by addition of 50 mM Tris-HCl buffer (pH 7.4, 4° C.) and filtration under vacuum through GF/B filters presoaked with 0.1% polyethyleneimine (NK1 receptor assays) or 0.5% bovine serum albumin (NK2 and NK3 receptor assays). Filter bound radioactivity was quantitated in a gamma counter. Nonspecific binding was defined as binding in the presence of 1 μM substance P, neurokinin A, or eledoisin. Specific binding was calculated by subtracting nonspecific binding from total binding. Competition of iodinated SP, NKA, or eledoisin binding by test compounds or standards was expressed as a percentage of this maximum competition. IC50 values (concentration required to inhibit 50% of receptor binding) were generated for each of the test compounds by nonlinear regression using an iterative curve fitting program (GraphPAD Inplot, San Diego, Calif.).

Experiment [2] has as its target T1, NK1 receptor. The experiment can be described thus: Antagonism of SP-induced plasma protein extravasation in guinea pig trachea. The experiment is classed as in vivo. Also noted: SP-induced plasma protein extravasation in guinea pig trachea; from tissue; host or cells: living guinea pig; trachea and primary bronchi. Particulars: i.v. How it is done: ANTAGONISM OF SP-INDUCED PLASMA PROTEIN EXTRAVASATION IN GUINEA PIG TRACHEA
SP-induced protein leakage through postcapillary venules was assessed by measuring Evans Blue dye accumulation in guinea pig trachea. Animals were anesthetized with pentobarbital then injected with Evans Blue dye (20 mg/kg, i.v., prepared in 0.9% NaCl solution). One minute after dye administration, the antagonist was administered (i.v.) followed by SP (0.3 nmole/kg, i.v.) and, after 5 min, excess dye removed from the circulation by transcardiac perfusion with 50 ml 0.9% NaCl solution. The trachea and primary bronchi were removed, blotted dry and weighed. Dye quantitation was performed spectrophotometrically ([…]) after extracting tissues in formamide for 24 hr at 50° C. Values were subtracted from background (dye only, no agonist). ED50 (dose of compound which inhibits SP-induced plasma protein extravasation by 50%) was calculated from linear regression analysis.

T1 sequence (P30547 whole entry): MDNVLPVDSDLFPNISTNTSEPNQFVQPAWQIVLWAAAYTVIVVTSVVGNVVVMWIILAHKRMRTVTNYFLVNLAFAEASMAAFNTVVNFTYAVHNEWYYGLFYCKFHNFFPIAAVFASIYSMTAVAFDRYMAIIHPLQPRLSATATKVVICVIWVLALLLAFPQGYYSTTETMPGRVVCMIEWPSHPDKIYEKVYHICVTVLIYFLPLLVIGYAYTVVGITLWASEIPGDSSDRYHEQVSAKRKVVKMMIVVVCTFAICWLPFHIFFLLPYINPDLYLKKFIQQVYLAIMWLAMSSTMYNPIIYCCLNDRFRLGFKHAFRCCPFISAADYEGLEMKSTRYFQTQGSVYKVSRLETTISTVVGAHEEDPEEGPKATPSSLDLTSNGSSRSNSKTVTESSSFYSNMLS

Consider `COc1cc(C(=O)N2CCC(CCN3CCC(C(N)=O)(c4ccccc4)CC3)(c3ccc(Cl)c(Cl)c3)C2)cc(OC)c1OC` (stereo not drawn) [Example 3, 1-[2-[3-(3,4-dichloro-phenyl)-1-(3,4,5-trimethoxy-benzoyl)-pyrrolidin-3-yl]-ethyl]-4-phenyl-piperidine-4-carboxylic acid amide], for which the “affinity for NK1 receptors (in words)” value in experiment [1] is listed as “high affinity”. Also, in experiment [2], the “antagonism of SP-induced plasma protein extravasation (in words, FIG. 2)” value is on record as “dose related antagonism”. Moreover, in experiment [2] (Example 3 versus Example 20A), the “relative potency as NK-1 receptor antagonists (in words)” value is “equipotent”.

For the origin of these results see patent publication US5648366A, “Substituted pyrrolidin-3-yl-alkyl-piperidines” (Merrell Pharmaceuticals Inc., priority 1995, dated 1997).
